The subject of data set [1] is HCoV-229E. Nature of the data set: microbe, parasite or virus in culture. The class given is cell-based.
The subject of data set [2] is SARS-CoV-2 Gamma strain (hCoV-19/Japan/TY7-501/2021). Also noted: species or system BALB/cAJcl mice. The conditions noted are these: mouse, in vivo.
For data set [3], the system named is SARS-CoV-2. The data set can be described thus: microbe, parasite or virus in culture. The format is cell-based. As to conditions: Severe acute respiratory syndrome coronavirus 2, A549.
Data set [4] deals with Human Thrombin (Homo sapiens, UniProt P00734). Nature of the data set: biochemical.
In data set [5] the target is T1, P-gp (Homo sapiens, UniProt P08183). As to conditions: LLC-PK1.
Data set [6] deals with MERS-CoV. The data set can be described thus: microbe, parasite or virus in culture. The class given is cell-based. As to conditions: Middle East respiratory syndrome-related coronavirus, VeroE6/TMPRSS2, read-out: EC50 MERS-CoV.
Data set [7] concerns SARS-CoV-2 Omicron strains. The data set can be described thus: microbe, parasite or virus in culture. The format is cell-based. As to conditions: Severe acute respiratory syndrome coronavirus 2, Epithelial cell.
Data set [8] is described as follows: in vitro. The conditions noted are these: male, rat, microsomes.
The conditions of data set [9]: pig.
Data set [10] has as its target Human Caspase 2 (Homo sapiens, UniProt P42575). The data set can be described thus: biochemical.
Data set [11] in a line: in vivo. As to conditions: male, beagle, dog, iv, 0.1 mg/kg.
In data set [12] the test system is SARS-CoV. The data set can be described thus: microbe, parasite or virus in culture. As to conditions: Severe acute respiratory syndrome coronavirus, VeroE6/TMPRSS2, read-out: EC50 SARS-CoV. The class given is cell-based.
Data set [13] can be described thus: in vivo. The conditions noted are these: female, cynomolgus monkey, iv, 0.1 mg/kg.
A short description of data set [14]: in vivo. The conditions noted are these: male, Sprague-Dawley, rat.
The subject of data set [15] is HCoV-OC43. The data set can be described thus: microbe, parasite or virus in culture. The class given is cell-based. As to conditions: Betacoronavirus 1, OC43, MRC5, read-out: EC50 HCoV-OC43.
Data set [16] can be described thus: in vitro. As to conditions: pig, LLC-PK1.
Data set [17] concerns SARS-CoV-2 hCoV-19/Japan/TY/WK-521 strain. The data set can be described thus: microbe, parasite or virus in culture. The class given is cell-based. The conditions noted are these: Severe acute respiratory syndrome coronavirus 2, HEK-293T, read-out: HEK 293T-AT EC50.
Data set [18] deals with HIV-1 Protease (Human immunodeficiency virus type 1 group M subtype B, UniProt P04585). The data set can be described thus: biochemical.
A short description of data set [19]: in vitro. As to conditions: African green monkey.
Data set [20] deals with T1, P-gp. The data set can be described thus: in vitro. The conditions noted are these: LLC-PK1.
The test system of data set [21] is Human Cathepsin B/D/G/L. The class given is biochemical.
Data set [22] deals with SARS-CoV-2 Gamma strain (hCoV-19/Japan/TY7-501/2021). The data set can be described thus: microbe, parasite or virus in culture. The format is cell-based.
The conditions of data set [23]: in vivo.
Data set [24] in a line: in vitro. As to conditions: both, human, microsomes.
Data set [25] relates to Human Chymotrypsin. The class given is biochemical.
The conditions of data set [26]: human, microsomes, 0.5 h; cited from earlier work.
Data set [27] concerns SARS-CoV. As to conditions: cited from earlier work.
Data set [28] relates to SARS-CoV-2 hCoV-19/Japan/TY/WK-521 strain. The conditions noted are these: read-out: HEK 293T-AT EC50; cited from earlier work.
Data set [29] deals with HCoV-229E. The conditions noted are these: cited from earlier work.
Data set [30] concerns MERS-CoV. As to conditions: cited from earlier work.
For data set [31] the following is noted: rat, microsomes, 0.5 h; cited from earlier work.
For data set [32] the following is noted: LLC-PK1; cited from earlier work.
Data set [33] deals with T1, P-gp. The conditions noted are these: LLC-PK1; cited from earlier work.
[34] abbreviates: Severe acute respiratory syndrome coronavirus 2, VeroE6/TMPRSS2, read-out: EC90, 0% serum.
The mark [35] stands for this setting: Severe acute respiratory syndrome coronavirus 2, VeroE6/TMPRSS2, read-out: EC90, 12.5% serum.
Setting [36] is: Severe acute respiratory syndrome coronavirus 2, VeroE6/TMPRSS2, read-out: EC90, 25% serum.

Where “and” joins values, the source holds several entries; their conditions need not be identical. Equal entries are not always repeated. Entries after “also recorded” stand apart in the source; their conditions may differ. Where two headings read alike, the source gives them in different places.

T1 sequence (P08183 whole entry): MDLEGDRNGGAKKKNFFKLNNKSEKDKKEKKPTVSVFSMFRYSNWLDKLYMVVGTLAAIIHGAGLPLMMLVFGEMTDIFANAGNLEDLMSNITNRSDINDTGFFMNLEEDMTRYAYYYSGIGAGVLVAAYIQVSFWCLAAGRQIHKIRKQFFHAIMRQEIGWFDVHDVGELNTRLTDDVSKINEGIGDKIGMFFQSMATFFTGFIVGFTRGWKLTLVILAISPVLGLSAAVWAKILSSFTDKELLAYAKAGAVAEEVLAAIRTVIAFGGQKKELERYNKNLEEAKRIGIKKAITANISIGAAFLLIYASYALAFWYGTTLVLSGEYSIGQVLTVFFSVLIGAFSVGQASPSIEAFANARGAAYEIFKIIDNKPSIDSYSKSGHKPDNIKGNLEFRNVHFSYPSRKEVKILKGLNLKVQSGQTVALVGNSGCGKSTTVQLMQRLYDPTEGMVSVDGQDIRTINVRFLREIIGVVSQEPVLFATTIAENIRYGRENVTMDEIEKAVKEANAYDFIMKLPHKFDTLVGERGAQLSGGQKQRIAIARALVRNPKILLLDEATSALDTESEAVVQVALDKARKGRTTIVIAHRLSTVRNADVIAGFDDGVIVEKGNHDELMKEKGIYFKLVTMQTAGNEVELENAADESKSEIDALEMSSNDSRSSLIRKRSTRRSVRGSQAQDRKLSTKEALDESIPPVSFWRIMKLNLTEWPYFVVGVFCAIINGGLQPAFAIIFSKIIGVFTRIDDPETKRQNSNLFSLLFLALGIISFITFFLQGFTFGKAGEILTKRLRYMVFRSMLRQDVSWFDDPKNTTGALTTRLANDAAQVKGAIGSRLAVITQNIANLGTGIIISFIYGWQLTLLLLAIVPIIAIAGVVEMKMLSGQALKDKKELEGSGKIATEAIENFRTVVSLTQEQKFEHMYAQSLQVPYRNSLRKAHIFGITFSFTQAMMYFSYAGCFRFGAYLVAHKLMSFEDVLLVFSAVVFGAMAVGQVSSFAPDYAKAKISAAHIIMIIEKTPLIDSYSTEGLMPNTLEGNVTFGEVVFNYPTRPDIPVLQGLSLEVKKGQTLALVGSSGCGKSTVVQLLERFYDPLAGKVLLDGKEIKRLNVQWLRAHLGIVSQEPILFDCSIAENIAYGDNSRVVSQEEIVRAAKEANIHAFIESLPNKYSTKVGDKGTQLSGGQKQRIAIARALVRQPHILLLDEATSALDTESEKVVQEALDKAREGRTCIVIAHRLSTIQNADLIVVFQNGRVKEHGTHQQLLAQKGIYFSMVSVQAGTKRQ
Chain of Human Caspase 2 (P42575 170-333): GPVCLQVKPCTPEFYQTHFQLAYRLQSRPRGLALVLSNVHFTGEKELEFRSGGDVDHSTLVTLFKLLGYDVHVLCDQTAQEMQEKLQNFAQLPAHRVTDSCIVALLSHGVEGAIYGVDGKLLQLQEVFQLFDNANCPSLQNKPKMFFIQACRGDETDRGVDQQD
Chain of Human Caspase 2 (P42575 348-452): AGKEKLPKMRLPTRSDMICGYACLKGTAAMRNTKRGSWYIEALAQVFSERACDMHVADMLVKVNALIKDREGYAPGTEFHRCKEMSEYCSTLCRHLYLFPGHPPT

Turning to `N#CCn1c(N2CC3(C2)CC(F)(F)C3)c(-c2ccc(F)c(Cl)c2)c(=O)n(-c2cncc(Cl)c2)c1=O` [Compound 17, [5-(3-Chloro-4-fluorophenyl)-3-(5-chloropyridin-3-yl)-6-(6,6-difluoro-2-azaspiro[3.3]-heptan-2-yl)-2,4-dioxo-3,4-dihydropyrimidin-1(2H)-yl]-acetonitrile], the EC50 – broadly, the midpoint of the concentration-response curve – turned out to be 3570 ± 510 nM in data set [1] (read-out: EC50 HCoV-229E); 2.21 nM in data set [3]; 57.3 nM in data set [6]; 6.61 nM in data set [12]; 92 nM in data set [15]; 2.48 nM in data set [17]. Moreover, the lung virus titers entry in data set [2] is given as “reduced lung virus titers in a dose-dependent manner; also recorded: Virus titer reduction was observed; also recorded: appeared to reach maximum efficacy”. Also, the IC50 in data set [4], in [10], in data set [18], in data set [21] and in data set [25] was above 10000 nM in each case. Further, the P-gp substrate assessment entry in [5] is given as “P-gp substrates”. Moreover, the EC90 – broadly, the point of the concentration-response curve where the effect stands at 90% – in [7] was 2.41 ± 1.61 nM; in data set [7] (in Mus musculus, read-out: protein-adjusted EC90 (PA-EC90)) it was 27 nM to 28.1 nM and 0.0141 µg/mL to 0.0147 µg/mL; in data set [22] (setting [34]), 1.66 ± 0.14 nM; in data set [22] (setting [35]) it was 1.98 ± 0.08 nM; in data set [22] (setting [36]), 3.42 ± 0.55 nM; in data set [22] (read-out: EC90, 12.5% serum), 2.43 ± 0.32 nM. The EC90 in data set [22] (read-out: EC90, 25% serum) amounted to 2.76 ± 0.66 nM. Also, the results for the amount remaining at 0.5 h in [8] and in data set [24] were 92% and 99%, respectively. For the same molecule, in data set [9], the “LLC-PK1 P app” value was 6.17 × 10^–6 cm/s. The figures for the clearance in [11], in data set [13] and in [14] (iv) were 2.52 mL/min/kg, 11.4 mL/min/kg and 6.79 mL/min/kg, respectively. Also, the half-life (in general, how long it takes for the measured level to halve) in data set [11] is 24.9 h; in data set [13], 7.02 h; in [14] (iv), 8.14 h. The bioavailability – broadly, dose-corrected exposure relative to a reference, in per cent – in data set [14] (po, 1 umol/kg) amounted to 100%. Moreover, the results for the Papp A→B in data set [16] and in data set [20] were 6.17 ×10⁻⁶ cm/s and 2.48 ×10⁻⁶ cm/s, respectively. The Papp B→A (usually how fast a substance crosses the layer from the basolateral side) in [16] stood at 7.36 ×10⁻⁶ cm/s; in data set [20], 22.4 ×10⁻⁶ cm/s. For the same molecule, the CC50 in data set [19] is above 100000 nM. In addition, the adverse effects entry in data set [23] is “No adverse effects were observed”. Further, in [23], the teratogenicity result is “No teratogenicity was observed”.

Turning to `Cn1cnc(Cn2c(=O)[nH]/c(=N\c3cc4cn(C)nc4cc3Cl)n(Cc3cc(F)c(F)cc3F)c2=O)n1` [ensitrelvir], in data set [26], the HLM % remained is 96/88^25%. The EC50 was 73.1 ± 16.4 nM in data set [3]; 210 nM in data set [27]; 27 nM in [28]; 5500 nM in data set [29]; 1400 nM in [30]; 142 ± 9 nM in data set [15]. For the same molecule, the P-gp substrate assessment entry in [5] is “P-gp substrates”. For the same molecule, the concentration for an effect of 90% (EC90) in [7] was 60.1 ± 32.8 nM; in [22] (setting [34]) it was 118 ± 52 nM; in data set [22] (setting [35]), 367 ± 69 nM; in data set [22] (setting [36]) it was 608 ± 75 nM; in data set [22] (Severe acute respiratory syndrome coronavirus 2, VeroE6/TMPRSS2, read-out: EC90, 50% serum) it was 838 ± 191 nM; in data set [22] (Severe acute respiratory syndrome coronavirus 2, VeroE6/TMPRSS2, read-out: EC90, 100% (Extrapolated)) it was 1590 ± 330 nM. The EC90 was 218 ± 60 nM in data set [22] (read-out: EC90, 12.5% serum); 462 ± 129 nM in [22] (read-out: EC90, 25% serum); 1560 ± 290 nM in data set [22] (read-out: EC90, 50% serum); 2920 ± 550 nM in data set [22] (read-out: EC90, 100% (Extrapolated)). The RLM % remained in data set [31] is on record as 96/88^25%. Besides, the “Papp Apical to Basolateral” value in data set [32] is listed as 10.3 ± 0.3 ×10-6 cm/sec; in data set [33], 2.03 ± 0.07 ×10-6 cm/sec. For the same molecule, the “Papp Basolateral to Apical” value in data set [32] is listed as 11.6 ± 0.3 ×10-6 cm/sec; in data set [33], 30.2 ± 1.8 ×10-6 cm/sec.

Regarding `CC(C)(C)[C@H](NC(=O)C(F)(F)F)C(=O)N1C[C@H]2[C@@H]([C@H]1C(=O)N[C@H](C#N)C[C@@H]1CCNC1=O)C2(C)C` [nirmatrelvir, reference compound], the EC50 in data set [1] (Human coronavirus 229E, MRC5, read-out: EC50 HCoV-229E) worked out at 696 ± 210 nM; in data set [3] it was 47.5 ± 12.3 nM; in data set [15], 58.8 ± 12.2 nM. In [5], the P-gp substrate assessment entry is listed as “P-gp substrates”. Moreover, in data set [7], the 90% effect level (EC90) was put at 45.1 ± 21.2 nM. The Papp A→B (usually the apparent permeability from the apical to the basolateral side of a cell layer) in data set [16] was determined as 0.615 ×10⁻⁶ cm/s; in data set [20] it was 0.908 ×10⁻⁶ cm/s. For the same molecule, the Papp B→A in [16] was 1.42 ×10⁻⁶ cm/s; in data set [20], 9.39 ×10⁻⁶ cm/s.

These data come from publication PMC12557365 (Journal of Medicinal Chemistry, 2025).
